According to patent publication US6252079A, “Intermediates in the synthesis of camptothecin and related compounds and synthesis thereof” (University of Pittsburgh, priority 1997, dated 2001):
Like-named read-outs stand apart in the source and are kept apart here.

Experiments:
[1] = tested on: colon cancer xenografts; conditions: dose levels that were well tolerated; cited from earlier work
[2] = target: T1, Topoisomerase I (Homo sapiens, UniProt P11387); assay: Induction of Topoisomerase I-mediated DNA cleavage; format: biochemical; conditions: 22d compared with CPT
T1 construct: supercoiled DNA relaxation and DNA cleavage assays
T1 sequence (P11387 2-765): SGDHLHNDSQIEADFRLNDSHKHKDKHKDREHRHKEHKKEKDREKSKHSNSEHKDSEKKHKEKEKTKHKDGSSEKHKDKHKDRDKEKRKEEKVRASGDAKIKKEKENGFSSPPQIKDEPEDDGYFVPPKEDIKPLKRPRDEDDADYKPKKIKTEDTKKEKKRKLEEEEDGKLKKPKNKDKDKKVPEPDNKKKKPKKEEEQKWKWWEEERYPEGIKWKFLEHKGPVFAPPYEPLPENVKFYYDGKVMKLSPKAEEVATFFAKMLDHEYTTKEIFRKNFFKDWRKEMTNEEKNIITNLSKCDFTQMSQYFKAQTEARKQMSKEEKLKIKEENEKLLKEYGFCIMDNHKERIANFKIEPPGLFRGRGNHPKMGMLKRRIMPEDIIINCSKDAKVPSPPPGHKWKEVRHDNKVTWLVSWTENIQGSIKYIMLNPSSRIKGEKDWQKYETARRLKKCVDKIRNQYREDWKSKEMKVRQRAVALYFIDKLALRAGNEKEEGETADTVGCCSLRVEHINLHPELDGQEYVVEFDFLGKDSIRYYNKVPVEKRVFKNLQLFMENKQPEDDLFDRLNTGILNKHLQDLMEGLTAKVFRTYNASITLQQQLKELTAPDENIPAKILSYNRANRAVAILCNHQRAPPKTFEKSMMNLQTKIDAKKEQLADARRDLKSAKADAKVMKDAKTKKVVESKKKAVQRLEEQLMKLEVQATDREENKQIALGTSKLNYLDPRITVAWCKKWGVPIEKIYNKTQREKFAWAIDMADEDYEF

[3] = tested on: HL-60 human promyelocytic leukemic cells; assay: Cytotoxicity, HL-60 cells; format: cell-based
Description: Cytotoxicity and Topoisomerase I-mediated effect studies of compounds 22d and (20S)-camptothecin were performed at the Laboratory for Bioorganic Chemistry, Memorial Sloan-Kettering Institute Cancer Center, New York with the following results:
1. IC50 (HL-60 human promyelocytic leukemic cells, μmol): 0.004 (22d); 0.004 (CPT).

[4] = tested on: 833 K human teratocarcinoma cells; assay: Cytotoxicity, 833 K cells; format: cell-based; conditions: read-out: IC50 (833 K human teratocarcinoma cells)
Description: Cytotoxicity and Topoisomerase I-mediated effect studies of compounds 22d and (20S)-camptothecin were performed at the Laboratory for Bioorganic Chemistry, Memorial Sloan-Kettering Institute Cancer Center, New York with the following results: […]

[5] = tested on: thirteen human xenograft lines, including colon, lung, breast, stomach, ovary, and malignant melanoma; conditions: 20% interlipid formulation, intramuscularly and orally, non-toxic doses; cited from earlier work
[6] = target: T1, Topoisomerase I; assay: Inhibition of Topoisomerase I-mediated relaxation of supercoiled DNA; format: biochemical; conditions: 22d compared with CPT

## CCC1(O)C(=O)OCc2c1cc1n(c2=O)Cc2cc3c(N)cccc3nc2-1 (racemic) [Racemic 9-aminocamptothecin, 9-aminocamptothecin]
[1]
  efficacy in mice carrying colon cancer xenografts: very effective

## CC[C@@]1(O)C(=O)OCc2c1cc1n(c2=O)Cc2cc3ccccc3nc2-1 [CPT, (20S)-camptothecin]
[2]
  potency in the induction of Topoisomerase I-mediated DNA cleavage: Same potency
[3]; HL-60, read-out: IC50 (HL-60 human promyelocytic leukemic cells)
  IC50: 4 nM
[4]; 833K
  IC50: 5.5 nM
[5]
  effect on growth of human xenograft lines: suppressed growth and induced regression of cancer in thirteen human xenograft lines
[6]
  potency in the inhibition of Topoisomerase I-mediated relaxation of supercoiled DNA: Same potency

## CC[C@@]1(O)C(=O)OCc2c1cc1n(c2=O)Cc2c-1nc1ccccc1c2[Si](C)(C)C [Compound 22d, (20S)-7-Trimethylsilylcamptothecin]
[2]
  potency in the induction of Topoisomerase I-mediated DNA cleavage: Same potency
[3]; HL-60 cells, cytotoxicity, read-out: IC50 (HL-60 human promyelocytic leukemic cells)
  IC50: 4 nM
[4]; 833 K cells, cytotoxicity
  IC50: 4.4 nM
[6]
  potency in the inhibition of Topoisomerase I-mediated relaxation of supercoiled DNA: Same potency
